Measured values as given in patent US12091386B2, “D-amphetamine compounds, compositions, and processes for making and using the same” (Zevra Therapeutics, Inc., priority 2018, dated 2024).

Test: Intravenous pharmacokinetic study in rats (tail vein injection)
Type: in vivo, rat
Conditions: FIG. 10, versus isonicotinate analogue

## CCOC(=O)c1ccc[n+](COC(=O)N[C@@H](C)Cc2ccccc2)c1 [AMP-CO2CH2-nicotinate(Et), d-amphetamine-CO2CH2-nicotinate ethyl ester]
  exposure to d-amphetamine after intravenous administration compared to AMP-CO2CH2-isonicotinate(Et): decreases exposure to d-amphetamine
